The text below walks through data of patent US10809252B2, “Time-resolved fluorescent immunochromatographic assay rapid test kit for type I pyrethroid” (priority 2017, dated 2020).

For assay [1], the system named is universal monoclonal antibody against type I pyrethroid (hybridoma cell line QW8#). The assay can be described thus: conventional indirect competitive ELISA. Format: binding, mouse. The text has this:
To screen the target positive hybridoma cell line that is a highly specific and sensitive cell line against pyrethroid containing a diphenyl ether structure (by screening with etofenprox standard), the traditional two-step screening method was modified in this experiment. A gradient screening method was used in the indirect competitive ELISA screening process. (1) In the first step, an indirect non-competitive ELISA was used to screen the positive wells that recognized the diphenyl ether structure, but not the carrier protein (BSA). […] The positive wells with relatively small B/B0 were selected, where B is the absorbance in the control well […] etofenprox standard, and B0 is the absorbance in the wells with etofenprox standard. The cells were cloned by limiting dilution, and detected about 10 days after the cloning by using the same two-step method as described above. […]
The affinity for QW8# was determined by indirect non-competitive ELISA. […] The OD450 values measured was used as the vertical coordinates, the values of the logarithm of the antibody concentrations (mol/L) were used as the horizontal coordinates, 4 S-shaped curves corresponding to the 4 concentrations were plotted. […]

Assay [2] deals with Hapten-1-BSA. The experiment in a line: affinity constant (Ka) of the antibody by indirect non-competitive ELISA. Format: binding. The settings on record: antibody derived from mouse ascetic fluid; plate coated with Hapten-1-BSA at 2.0, 1.0, 0.5, 0.25 μg/mL. How it is done: The affinity for QW8# was determined by indirect non-competitive ELISA. The plate was coated at 37° C. for 2 hours with Hapten-1-BSA at concentrations of 2.0, 1.0, 0.5, and 0.25 μg/mL in an amount of 100 μL/well. After the plate was blocked with a blocking solution for 1 hour, the antibody diluted with PBS (at a dilution factor of 1:2) was added to the plate and the rest steps were the same as those in indirect non-competitive ELISA. The OD450 values measured was used as the vertical coordinates, the values of the logarithm of the antibody concentrations (mol/L) were used as the horizontal coordinates, 4 S-shaped curves corresponding to the 4 concentrations were plotted. The maximum OD value (ODmax) at the top of each S-curve, that is, the concentration of the antibody that corresponds to 50% of the ODmax, was obtained from each curve. The 4 concentrations were paired, and the affinity constant (Ka) of the antibody was calculated by using the formula Ka=(n−1)/2(n[Ab′]t−[Ab]t), where [Ab′]t, and [Ab]t are antibody concentrations corresponding to 50% of two ODmax values in each group, and n is the multiple of the antigen concentration coated in each group.
A general note: In an ELISA, binding on a coated surface is turned into a signal by an enzyme label.

`CCOc1ccc(C(C)(C)COCc2cccc(Oc3ccccc3)c2)cc1` [etofenprox]: the “IC50 value of the universal monoclonal antibody” value in assay [1] came to 0.02086 µg/mL.

In the case of `CC1(C)C(C=C(Cl)Cl)C1C(=O)OCc1cccc(Oc2ccccc2)c1` (stereo not drawn) [permethrin], in assay [1], the “IC50 value of the universal monoclonal antibody” value is 0.0242 µg/mL.

B1: QW8#: universal monoclonal antibody against type I pyrethroid secreted by hybridoma cell line QW8# (CCTCC C2016164), subtype IgG2a (antibody, V domains shown)
VH: QVTLKESGPGILQPSQTLSLTCSFSGFSLSTYGIGIGWIRQSSGRGLEWLAHIWWNDNRYYNIALKSRLTISKDASNNQFFLKLASVDTADIATYYCVRGYGRPFYAMDYWGQGTTVTVSS
VL: QAVVTQESALTTSPGETVTLTCRSSTGAVTTSNYVNWVQEKPDHLFTGLIGGTNNRGPGVPARFSGSLIGDKAALTITGTQTEDEAIYFCALWYSNHWVFGGGTKLTVL
For the molecule B1, the “affinity (affinity constant Ka) of the antibody” value in assay [2] is 2.16e+08 L/mol.
